# Assay results as given in US20090149440A1, “NOVEL PYRIDONECARBOXYLIC ACID DERIVATIVES OR SALTS THEREOF” (priority 2004, published 2009).
# Experiments:
# [1] = Pharmacokinetics: absorbability after oral administration, serum level; assay type: in vivo, dogs; settings: for Cmax / Tmax / half-life / AUC: dog, male beagle dogs, fasted, 10 mg/kg oral, 0.5% methylcellulose suspension, serum; for AUC: read-out: AUCO to 8 h
# Experimental: Absorbability of the compounds shown in Table 4 was investigated in dogs. Specifically, a 0.5% methylcellulose suspension of each test compound (10 mg/kg) was forcedly orally administered to 2- to 4-years old male beagle dogs which had been fasted for 16 to 17 hours. The blood was collected from each dog at 0.25, 0.5, 1, 2, 4, 6, 8, and 24 hours after the administration, and the serum level of the test compound was determined to evaluate absorbability of the compound.
# human serum proteins = experiment: Binding rate to proteins by ultrafiltration method; assay type: in vitro ADME; settings: 5 μg/mL, 37° C. for 30 minutes
# Experimental: Binding rate to proteins of the compounds shown in Table 3 was determined by ultrafiltration method. Specifically, a 0.5 mg/mL DMSO solution of each compound was diluted with human serum or a 0.4% phosphate buffer (pH: 7.4 containing 0.5% NaCl) to thereby prepare a 5 μg/mL solution. The human serum solution was incubated at 37° C. for 30 minutes and centrifugally filtrated through a filter (pore size: 0.22 μm). A portion of the serum filtrate and the phosphate buffer solution were applied to an HPLC system, and the peak area of the compound was measured. Binding rate of each compound to human serum proteins was calculated by the following equation 1: Binding rate (%)=(A−B)×100/A (equation 1) A: Peak area (in phosphate buffer) B: Peak area (in serum filtrate)
# S. haemolytlcus 67 = experiment: Antibacterial activity, minimum inhibitory concentration (standard method of the Japanese Society of Chemotherapy); assay type: cell-based
# Experimental: (§1) Minimum inhibitory concentration (MIC: μg/mL) of the compounds shown in Table 1 was determined according to the standard method of the Japanese Society of Chemotherapy (CHEMOTHERAPY 29(1), 76, 1981).
# MRSA W44 = experiment: as above; assay type: cell-based; settings: Staphylococcus aureus
# Experimental: as §1
# M. luteus IFO12708 = experiment: as above; assay type: cell-based; settings: Micrococcus luteus
# Experimental: as §1
# P. mirabilis IFO3849 = experiment: as above; assay type: cell-based; settings: Proteus mirabilis
# Experimental: as §1
# female ICR mice = experiment: Phototoxicity test: ear abnormalities after UV irradiation; assay type: in vivo; parameters: key to Phototoxicity score: normal (0 point); slight erythema (score 1); medium erythema (score 2); serious erythema or edema (score 3); settings: 40 mg/10 mL/kg intravenously, UV 320 to 400 nm for four hours
# Experimental: Each test compound was intravenously administered (40 mg/10 mL/kg) to female ICR mice (5- to 6-weeks old), and the mice were irradiated with UV-rays (320 to 400 nm, 1.8 mW/cm^2/sec) for four hours. Abnormalities induced in the ear of each mouse were observed immediately after (0 hour), 24 hours after, and 48 hours after the irradiation. The abnormality was evaluated according to the following criteria: normal (0 point), slight erythema (score 1), medium erythema (score 2), and serious erythema or edema (score 3).
smiles,measurement,setting,value
"CC(C)(C)NC1CN(c2c(F)cc3c(=O)c(C(=O)O)cn(-c4nc(N)c(F)cc4F)c3c2Cl)C1 [compound 5, 1-(6-Amino-3,5-difluoropyridin-2-yl)-7-(3-tert-butylaminoazetidin-1-yl)-8-chloro-6-fluoro-4-oxo-1,4-dihydroquinolin-3-carboxylic acid]",melting point,,≥ 250 °C (dec.)
"CNC1CN(c2c(F)cc3c(=O)c(C(=O)O)cn(-c4nc(N)c(F)cc4F)c3c2Br)C1.O=C(O)/C=C\C(=O)O [compound 3, 1-(6-amino-3,5-difluoropyridin-2-yl) 8-bromo-6-fluoro-7-(3-methylaminoazetidin-1-yl)-4-oxo-1,4-dihydroquinolin-3-carboxylic acid maleic acid salt]",Cmax,[1],1490 ng/mL
same,Tmax,[1],1 h
same,half-life,[1],3.2 h
same,AUC,[1],7600 ng·h/mL
"CCNC1CN(c2c(F)cc3c(=O)c(C(=O)O)cn(-c4nc(N)c(F)cc4F)c3c2Br)C1.O=C(O)/C=C\C(=O)O [compound 4, 1-(6-amino-3,5-difluoropyridin-2-yl) 8-bromo-7-(3-ethylaminoazetidin-1-yl)-6-fluoro-4-oxo-1,4-dihydroquinolin-3-carboxylic acid maleic acid salt]",Cmax,[1],3730 ng/mL
same,Tmax,[1],1 h
same,half-life,[1],4.3 h
same,AUC,[1],17500 ng·h/mL
"CNc1nc(-n2cc(C(=O)O)c(=O)c3cc(F)c(N4CC(NC(C)C)C4)c(Br)c32)c(F)cc1F [compound 11, 8-Bromo-1-(3,5-difluoro-6-methylaminopyridin-2-yl)-6-fluoro-7-(3-isopropylaminoazetidin-1-yl)-4-oxo-1,4-dihydroquinolin-3-carboxylic acid]",melting point,,≥ 220 °C (dec.)
"CNc1nc(-n2cc(C(=O)O)c(=O)c3cc(F)c(N4CC(NC(C)C)C4)c(Cl)c32)c(F)cc1F [compound 9, 8-Chloro-1-(3,5-difluoro-6-methylaminopyridin-2-yl)-6-fluoro-7-(3-isopropylaminoazetidin-1-yl)-4-oxo-1,4-dihydroquinolin-3-carboxylic acid]",melting point,,≥ 244 °C (dec.)
"CC(C)(C)NC1CN(c2c(F)cc3c(=O)c(C(=O)O)cn(-c4nc(N)c(F)cc4F)c3c2Br)C1 [compound 4, 1-(6-Amino-3,5-difluoropyridin-2-yl)-8-bromo-7-(3-tert-butylaminoazetidin-1-yl)-6-fluoro-4-oxo-1,4-dihydroquinolin-3-carboxylic acid]",Binding rate to proteins,human serum proteins,44.9%
same,melting point,,≥ 225 °C (dec.)
"CC(C)NC1CN(c2c(F)cc3c(=O)c(C(=O)O)cn(-c4nc(N)c(F)cc4F)c3c2Br)C1 [compound 1, 1-(6-Amino-3,5-difluoropyridin-2-yl)-8-bromo-6-fluoro-7-(3-isopropylaminoazetidin-1-yl)-4-oxo-1,4-dihydroquinolin-3-carboxylic acid]",MIC,S. haemolytlcus 67,4 µg/mL
same,MIC,MRSA W44,0.03 µg/mL
same,MIC,M. luteus IFO12708,0.12 µg/mL
same,MIC,P. mirabilis IFO3849,0.25 µg/mL
same,Binding rate to proteins,human serum proteins,64.0%
same,Phototoxicity incidence,female ICR mice; 0 hour after irradiation,0/3
same,Phototoxicity score,female ICR mice; 0 hour after irradiation,0
same,Phototoxicity incidence,female ICR mice; 24 hours after irradiation,0/3
same,Phototoxicity score,female ICR mice; 24 hours after irradiation,0
same,Phototoxicity incidence,female ICR mice; 48 hours after irradiation,0/3
same,Phototoxicity score,female ICR mice; 48 hours after irradiation,0
"CNC1CN(c2c(F)cc3c(=O)c(C(=O)O)cn(-c4nc(N)c(F)cc4F)c3c2Br)C1 [compound 1, 1-(6-amino-3,5-difluoropyridin-2-yl)-8-bromo-6-fluoro-7-(3-methylaminoazetidin-1-yl)-4-oxo-1,4-dihydroquinolin-3-carboxylic acid]",MIC,S. haemolytlcus 67,8 µg/mL
same,MIC,MRSA W44,0.06 µg/mL
same,MIC,M. luteus IFO12708,0.25 µg/mL
same,MIC,P. mirabilis IFO3849,0.5 µg/mL
same,Binding rate to proteins,human serum proteins,49.0%
same,Phototoxicity incidence,female ICR mice; 0 hour after irradiation,0/3
same,Phototoxicity score,female ICR mice; 0 hour after irradiation,0
same,Phototoxicity incidence,female ICR mice; 24 hours after irradiation,0/3
same,Phototoxicity score,female ICR mice; 24 hours after irradiation,0
same,Phototoxicity incidence,female ICR mice; 48 hours after irradiation,0/3
same,Phototoxicity score,female ICR mice; 48 hours after irradiation,0
CC(C)NC1CN(c2c(F)cc3c(=O)c(C(=O)O)cn(-c4nc(N)c(F)cc4F)c3c2Br)C1.Cl,melting point,,≥ 210 °C (dec.)
"CNc1nc(-n2cc(C(=O)O)c(=O)c3cc(F)c(N4CC(NC(C)C)C4)c(C)c32)c(F)cc1F [compound 7, 1-(3,5-Difluoro-6-methylaminopyridin-2-yl)-6-fluoro-7-(3-isopropylaminoazetidin-1-yl)-8-methyl-4-oxo-1,4-dihydroquinolin-3-carboxylic acid]",melting point,,≥ 218 °C (dec.)
"CC(C)NC1CN(c2c(F)cc3c(=O)c(C(=O)O)cn(-c4nc(N)c(F)cc4F)c3c2Cl)C1 [compound 2, 1-(6-Amino-3,5-difluoropyridin-2-yl)-8-chloro-6-fluoro-7-(3-isopropylaminoazetidin-1-yl)-4-oxo-1,4-dihydroquinolin-3-carboxylic acid]",melting point,,≥ 205 °C (dec.)
"CC(C)Nc1nc(-n2cc(C(=O)O)c(=O)c3cc(F)c(N4CC(NC(C)C)C4)c(Cl)c32)c(F)cc1F [compound 10, 8-Chloro-1-(3,5-difluoro-6-isopropylaminopyridin-2-yl)-6-fluoro-7-(3-isopropylaminoazetidin-1-yl)-4-oxo-1,4-dihydroquinolin-3-carboxylic acid]",melting point,,≥ 248 °C (dec.)
"Cc1c(N2CC(NC(C)(C)C)C2)c(F)cc2c(=O)c(C(=O)O)cn(-c3nc(N)c(F)cc3F)c12 [compound 6, 1-(6-Amino-3,5-difluoropyridin-2-yl)-7-(3-tert-butylaminoazetidin-1-yl)-6-fluoro-8-methyl-4-oxo-1,4-dihydroquinolin-3-carboxylic acid]",Binding rate to proteins,human serum proteins,26.8%
same,melting point,,≥ 193 °C (dec.)
"CCc1c(N2CC(NC(C)C)C2)c(F)cc2c(=O)c(C(=O)O)cn(-c3nc(N)c(F)cc3F)c12 [compound 3, 1-(6-Amino-3,5-difluoropyridin-2-yl)-6-fluoro-7-(3-isopropylaminoazetidin-1-yl)-8-ethyl-4-oxo-1,4-dihydroquinolin-3-carboxylic acid]",Binding rate to proteins,human serum proteins,44.3%
same,melting point,,≥ 238 °C (dec.)
"CCNC1CN(c2c(F)cc3c(=O)c(C(=O)O)cn(-c4nc(N)c(F)cc4F)c3c2Br)C1 [compound 2, 1-(6-amino-3,5-difluoropyridin-2-yl) 8-bromo-7-(3-ethylaminoazetidin-1-yl)-6-fluoro-4-oxo-1,4-dihydroquinolin-3-carboxylic acid]",MIC,S. haemolytlcus 67,8 µg/mL
same,MIC,MRSA W44,0.06 µg/mL
same,MIC,M. luteus IFO12708,0.25 µg/mL
same,MIC,P. mirabilis IFO3849,0.25 µg/mL
same,Binding rate to proteins,human serum proteins,62.8%
same,Phototoxicity incidence,female ICR mice; 0 hour after irradiation,0/3
same,Phototoxicity score,female ICR mice; 0 hour after irradiation,0
same,Phototoxicity incidence,female ICR mice; 24 hours after irradiation,0/3
same,Phototoxicity score,female ICR mice; 24 hours after irradiation,0
same,Phototoxicity incidence,female ICR mice; 48 hours after irradiation,0/3
same,Phototoxicity score,female ICR mice; 48 hours after irradiation,0
"CCNc1nc(-n2cc(C(=O)O)c(=O)c3cc(F)c(N4CC(NC(C)C)C4)c(C)c32)c(F)cc1F [compound 8, 1-(6-Ethylamino-3,5-difluoropyridin-2-yl)-6-fluoro-7-(3-isopropylaminoazetidin-1-yl)-8-methyl-4-oxo-1,4-dihydroquinolin-3-carboxylic acid]",melting point,,≥ 202 °C (dec.)
"CC(C)NC1CN(c2c(F)cc3c(=O)c(C(=O)O)cn(-c4nc(N)c(F)cc4F)c3c2Br)C1.CS(=O)(=O)O [compound 13, 1-(6-Amino-3,5-difluoropyridin-2-yl)-8-bromo-6-fluoro-7-(3-isopropylaminoazetidin-1-yl)-4-oxo-1,4-dihydroquinolin-3-carboxylic acid methanesulfonic acid salt]",melting point,,≥ 224 °C (dec.)
"CC(C)NC1CN(c2c(F)cc3c(=O)c(C(=O)O)cn(-c4nc(N)c(F)cc4F)c3c2Br)C1.O=C(O)/C=C\C(=O)O [compound 12, 1-(6-amino-3,5-difluoropyridin-2-yl)-8-bromo-6-fluoro-7-(3-isopropylaminoazetidin-1-yl)-4-oxo-1,4-dihydroquinolin-3-carboxylic acid maleic acid salt]",Binding rate to proteins,human serum proteins,64.0%
same,Cmax,[1],5250 ng/mL
same,Tmax,[1],1 h
same,half-life,[1],5.8 h
same,AUC,[1],30900 ng·h/mL
same,Pharmacokinetics (in words),"[1]; dogs, oral, compared with comparative compounds 3 and 4",remarkably improved
